Source: PMC10281575, “PfCRT mutations conferring piperaquine resistance in falciparum malaria shape the kinetics of quinoline drug binding and transport” (PLOS Pathogens, 2023)
Where “and” joins values, the source holds several entries; their conditions need not be identical. Equal entries are not always repeated. Where two headings read alike, the source gives them in different places.

Target: T1, PfCRT^Dd2_F145I (Plasmodium falciparum, UniProt Q8IBZ9, A220S/F145I/I356T/K76T/M74I/N326S/N75E/Q271E/R371I)
T1 construct: expressed in transfected cells; host or cells: Xenopus laevis oocytes injected with in vitro transcribed RNA (pSP64T)
T1 sequence (Q8IBZ9 1-424 M74I/N75E/K76T/F145I/A220S/Q271E/N326S/I356T/R371I): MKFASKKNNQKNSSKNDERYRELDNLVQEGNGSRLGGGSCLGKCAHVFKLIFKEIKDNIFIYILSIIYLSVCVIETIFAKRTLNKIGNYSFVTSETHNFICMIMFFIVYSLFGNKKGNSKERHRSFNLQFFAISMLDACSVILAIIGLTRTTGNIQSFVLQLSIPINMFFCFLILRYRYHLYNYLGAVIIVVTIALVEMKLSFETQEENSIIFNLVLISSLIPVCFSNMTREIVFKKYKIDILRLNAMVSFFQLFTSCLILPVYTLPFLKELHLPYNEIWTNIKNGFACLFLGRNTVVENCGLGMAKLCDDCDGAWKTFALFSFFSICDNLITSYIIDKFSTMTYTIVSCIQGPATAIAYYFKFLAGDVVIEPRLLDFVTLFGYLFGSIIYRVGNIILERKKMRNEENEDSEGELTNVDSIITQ
Assay: Competition kinetics of drug transport (radiolabeled substrate plus cold inhibitor), PfCRT^Dd2_F145I-expressing oocytes
Format: cell-based
Conditions: for PfCRTDd2_F145I-mediated CQ transport: 500 µM CQ; for Vmax, maximal velocity of drug transport: global fit; for β, partiality factor: factor on transport of the labeled drug by the other drug
Method: To further characterize the kinetic relationship between CQ and PPQ, we performed a series of competition reactions. To this end, water-injected oocytes and PfCRT-expressing oocytes were incubated in medium containing one of seven concentrations of radio-labeled CQ and one of six concentrations of cold PPQ for 60 min before the amount of radio-labeled CQ uptake was determined. The rate of PfCRT-mediated CQ uptake was calculated for each condition by subtracting the corresponding value obtained for water-injected oocytes from those of PfCRT-expressing oocytes. The results were analyzed as a function of the CQ concentration (Fig 4A) and 16 different models of substrate competition were globally fit to the data by the least-squares method, using Python. The models were ranked, according to their Akaike information criterion difference (ΔAICC) and their Akaike weight (Fig 4B), with the most plausible model being the one with the lowest AICC (ΔAICC = 0) and the highest Akaike weight.
A complementary set of experiments was undertaken to investigate the kinetic mechanism by which PfCRT^Dd2_F145I accepts CQ and PPQ (Fig 6). […] These included a global fit of the substrate competition data to the 16 kinetic models (Fig 6), analysis of the secondary plots (Vmax,app and Vmax,app/KM,app as a function of the inhibitor concentration) (Fig 7A), a fractional velocity plot analysis (Fig 7B) and a comparison of the experimental data with the modelled data using the noncompetitive inhibition equation (Fig 7C to 7F). […] The fractional velocity plot illustrated the partial character of the noncompetitive inhibition mechanism by yielding a partiality factor β^CQ = 0.31 ± 0.04, by which PPQ reduces the transport velocity of CQ (Fig 7B). […] A 3D model of the kinetics between PfCRT^Dd2_F145I, CQ and PPQ, and analyses of the residuals as a function of substrate and inhibitor concentrations confirmed that the model was also an appropriate explanation for the mutant transporter (Fig 7C to 7F).
Drug transport assays were performed as previously described. Briefly, measurements of radiolabeled drug uptake were made over 1 h, unless otherwise specified. […] Where specified, one or more unlabeled drugs were also present at the indicated concentrations. The direction of drug transport in the assays is from the extracellular medium (pH 6) into the oocyte cytosol (pH 7.2), which corresponds to the efflux of CQ or PPQ from the acidic digestive vacuole (pH 5.2) into the parasite cytosol (pH 7.2). The uptake assays were terminated by removing the oocytes from the reaction medium and washing them three times with 2 mL of ice-cold ND96 buffer. Each oocyte was transferred to a separate scintillation vial and lysed by the addition of 200 μL of a 5% SDS solution. The radioactivity in the sample was measured using a liquid scintillation analyser Tri-Carb 4910 TR (PerkinElmer). Water-injected oocytes were analyzed in parallel as a negative control. The buffer from each condition was measured in duplicate in parallel to each experiment to transform counts per minute into pmol of drug. Drug uptake attributable to PfCRT was determined by subtracting the background uptake from water-injected oocytes from that of PfCRT-expressing oocytes. In all cases, at least three independent experiments were performed on oocytes from different frogs, and for each condition in an experiment, measurements were made from 10 oocytes per treatment.
The following equations were adopted from Segel (1993), and the reader is referred to that text for the assumptions made in the author’s approach in the derivation of each equation [31]. The concentration of substrate is denoted as [S1] and the concentration of the inhibiting substrate is denoted as [S2]. KS1 and KS2 are the dissociation constants for the respective substrate-protein complexes.
Analyses of the kinetic data were performed using SigmaPlot version 13.0 and Python. […]

CCN(CC)CCCC(C)Nc1ccnc2cc(Cl)ccc12 (stereo not shown) [CQ, chloroquine]
PfCRTDd2_F145I-mediated CQ transport (200 µM PPQ): 12.08 pmol oocyte-1 h-1 and 15.16 pmol oocyte-1 h-1 and 13.13 pmol oocyte-1 h-1
PfCRTDd2_F145I-mediated CQ transport (350 µM PPQ): 10.85 pmol oocyte-1 h-1 and 12.45 pmol oocyte-1 h-1 and 11.74 pmol oocyte-1 h-1
most plausible inhibition model (16 models, ΔAICC, Akaike weight, secondary plots): partial noncompetitive inhibition
Vmax, maximal velocity of drug transport (Mixed (Partial) model, drug as radiolabeled substrate): 34 ± 2 pmol oocyte^-1 h^-1
Kd (Mixed (Partial) model, drug as cold inhibitor, read-out: KS, dissociation constant for the PfCRT-substrate complex): 200 ± 90 µM
Kd (Mixed (Partial) model, drug as radiolabeled substrate, read-out: KS, dissociation constant for the PfCRT-substrate complex): 350 ± 50 µM
β, partiality factor (Mixed (Partial) model): 0.41 ± 0.08
α, KS interaction factor (Mixed (Partial) model, label = radiolabeled substrate, other drug cold inhibitor): 1.0 ± 0.3
Vmax, maximal velocity of drug transport (Noncompetitive (Partial) model, drug as radiolabeled substrate, other drug as cold inhibitor): 34 pmol oocyte^-1 h^-1 and 34 ± 2 pmol oocyte^-1 h^-1
Kd (Noncompetitive (Partial) model, drug as cold inhibitor, read-out: KS, dissociation constant for the PfCRT-substrate complex): 225 µM and 230 µM
Kd (Noncompetitive (Partial) model, drug as radiolabeled substrate, read-out: KS, dissociation constant for the PfCRT-substrate complex): 357 µM and 360 µM
β, partiality factor (Noncompetitive (Partial) model): 0.40 and 0.40 ± 0.04
KMapp ([3H]CQ + PPQ) ([PPQ] 0 µM): 355.22 µM
Vmaxapp ([3H]CQ + PPQ) ([PPQ] 0 µM): 32.70 pmol oocyte-1 h-1
Vmaxapp/KMapp ([3H]CQ + PPQ) ([PPQ] 0 µM): 0.0962 h⁻¹
KMapp ([3H]CQ + PPQ) ([PPQ] 50 µM): 351.46 µM
Vmaxapp ([3H]CQ + PPQ) ([PPQ] 50 µM): 27.98 pmol oocyte-1 h-1
Vmaxapp/KMapp ([3H]CQ + PPQ) ([PPQ] 50 µM): 0.0844 h⁻¹
KMapp ([3H]CQ + PPQ) ([PPQ] 125 µM): 355.14 µM
Vmaxapp ([3H]CQ + PPQ) ([PPQ] 125 µM): 25.60 pmol oocyte-1 h-1
Vmaxapp/KMapp ([3H]CQ + PPQ) ([PPQ] 125 µM): 0.0728 h⁻¹
KMapp ([3H]CQ + PPQ) ([PPQ] 200 µM): 365.31 µM
Vmaxapp ([3H]CQ + PPQ) ([PPQ] 200 µM): 21.83 pmol oocyte-1 h-1
Vmaxapp/KMapp ([3H]CQ + PPQ) ([PPQ] 200 µM): 0.0619 h⁻¹
KMapp ([3H]CQ + PPQ) ([PPQ] 350 µM): 375.85 µM
Vmaxapp ([3H]CQ + PPQ) ([PPQ] 350 µM): 19.75 pmol oocyte-1 h-1
Vmaxapp/KMapp ([3H]CQ + PPQ) ([PPQ] 350 µM): 0.0554 h⁻¹
KMapp ([3H]CQ + PPQ) ([PPQ] 500 µM): 353.13 µM
Vmaxapp ([3H]CQ + PPQ) ([PPQ] 500 µM): 17.90 pmol oocyte-1 h-1
Vmaxapp/KMapp ([3H]CQ + PPQ) ([PPQ] 500 µM): 0.0540 h⁻¹
β^CQ, partiality factor (fractional velocity plot, factor by which PPQ reduces the transport velocity of CQ): 0.31 ± 0.04
Kd (secondary plot, half-maximal inhibitory concentration of Vmax,app versus inhibitor concentration, read-out: αKS, dissociation constant between the drug and the PfCRT complex with the other drug): 210 ± 120 µM
Kd (secondary plot, half-maximal inhibitory concentration of Vmax,app/KM,app versus inhibitor concentration, read-out: KS, dissociation constant between the drug and PfCRT): 250 ± 150 µM
α (αKS divided by KS) (secondary plots, label = prebound drug): 1.0 ± 0.3
